Blank lines part the entries; values can stand above or below the compound they belong to.
Assays:
[1] = target: PHD2 enzyme (residues 181-417) (Homo sapiens (Human), UniProt Q9GZT9); assay: Inhibition of PHD enzyme (LC/MS peptide hydroxylation assay); assay type: biochemical; settings: PHD2 (residues 181-417) 5 nM, 60 min pre-incubation; -log(IC50), IC50 molar
Outline: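 Hydroxylated peptide quantified by LC/MS after 60 min turnover of 1 uM biotinylated peptide with 2 uM 2-oxoglutarate and 1 mM ascorbate, stopped by excess tight-binding inhibitor. Beforehand, 5 nM enzyme and compound were preincubated 60 min at RT, pH 7.3 HEPES/KCl/TCEP/FeCl2/BSA buffer. Values as pIC50 (−log molar IC50).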

[2] = tested on: HIF1a protein in H9c2 rat cardiomyocytes; assay: Cell-based HIF-alpha stabilization assay (inhibition of PHD in cells); settings: Rattus norvegicus, H9c2, 24 h, 24 hrs compound incubation, HIF1a protein by ELISA, read-out: Inhibition of PHD in cells (pEC50) (converted)
Outline: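 HIF1a stabilization was measured by ELISA on lysates of H9c2 rat cardiomyocytes after 24 h exposure to 11 serial compound concentrations, expressed relative to the desferrioxamine maximum. Curve fits gave EC50. EC50pos denotes the concentration producing half the desferrioxamine maximal response.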

Sequence of PHD2 enzyme (residues 181-417) (Q9GZT9 181-417): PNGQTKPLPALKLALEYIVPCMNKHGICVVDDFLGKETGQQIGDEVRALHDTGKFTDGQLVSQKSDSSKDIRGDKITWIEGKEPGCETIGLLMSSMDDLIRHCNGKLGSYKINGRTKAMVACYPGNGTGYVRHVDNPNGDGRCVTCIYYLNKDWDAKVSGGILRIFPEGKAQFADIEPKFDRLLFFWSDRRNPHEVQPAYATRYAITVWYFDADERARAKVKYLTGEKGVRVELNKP

SMILES: Cc1cc(C#N)ccc1-c1cnn(-c2ccc(C(=O)N3CCN(C)CC(F)(F)C3)cn2)c1O [Example 299, 4-(1-(5-(6,6-difluoro-4-methyl-1,4-diazepane-1-carbonyl)pyridin-2-yl)-5-hydroxy-1H-pyrazol-4-yl)-3-methylbenzonitrile]
PHD Inhibition (pIC50) [1]: 8.46
EC50 [2]: 1050 nM

SMILES: COCCCNC(=O)c1ccc(-n2ncc(-c3ccc(C#N)cc3C3CC3)c2O)nc1 [Example 300, 6-(4-(4-cyano-2-cyclopropylphenyl)-5-hydroxy-1H-pyrazol-1-yl)-N-(3-methoxypropyl)nicotinamide]
PHD Inhibition (pIC50) [1]: 7.99
EC50 [2]: 17.4 nM

SMILES: Cc1cc(C#N)ccc1-c1cnn(-c2ccc(C(=O)N(C)C)cn2)c1O [Example 301, 6-(4-(4-cyano-2-methylphenyl)-5-hydroxy-1H-pyrazol-1-yl)-N,N-dimethylnicotinamide]
PHD Inhibition (pIC50) [1]: 8.67
EC50 [2]: 251 nM

SMILES: Cc1cc(C#N)ccc1-c1cnn(-c2ccc(C(=O)NC3CCN(CC(F)(F)F)CC3)cn2)c1O [Example 302, 6-(4-(4-cyano-2-methylphenyl)-5-hydroxy-1H-pyrazol-1-yl)-N-(1-(2,2,2-trifluoroethyl)piperidin-4-yl)nicotinamide]
PHD Inhibition (pIC50) [1]: 8.41
EC50 [2]: 288 nM

SMILES: Cc1cc(C#N)ccc1-c1cnn(-c2ccc(C(=O)N(C)CCCN3CCCCC3)cn2)c1O [Example 303, 6-(4-(4-cyano-2-methylphenyl)-5-hydroxy-1H-pyrazol-1-yl)-N-methyl-N-(3-(piperidin-1-yl)propyl)nicotinamide]
PHD Inhibition (pIC50) [1]: 7.88
EC50 [2]: 282 nM

SMILES: CN(CCCN1CCCCC1)C(=O)c1ccc(-n2ncc(-c3ccc(C#N)cc3)c2O)nc1 [Example 304, 6-(4-(4-cyanophenyl)-5-hydroxy-1H-pyrazol-1-yl)-N-methyl-N-(3-(piperidin-1-yl)propyl)nicotinamide]
PHD Inhibition (pIC50) [1]: 7.23
EC50 [2]: 2820 nM

SMILES: CCN1CCN(C(=O)c2ccc(-n3ncc(-c4ccc(C#N)c(F)c4C)c3O)nc2)CC1 [Example 305, 4-(1-(5-(4-ethylpiperazine-1-carbonyl)pyridin-2-yl)-5-hydroxy-1H-pyrazol-4-yl)-2-fluoro-3-methylbenzonitrile]
PHD Inhibition (pIC50) [1]: 8.27
EC50 [2]: 1320 nM

SMILES: CCN1CCN(C(=O)c2ccc(-n3ncc(-c4cc(F)c(C#N)cc4C)c3O)nc2)CC1 [Example 306, 4-(1-(5-(4-ethylpiperazine-1-carbonyl)pyridin-2-yl)-5-hydroxy-1H-pyrazol-4-yl)-2-fluoro-5-methylbenzonitrile]
PHD Inhibition (pIC50) [1]: 8.29
EC50 [2]: 4570 nM

SMILES: Cc1c(-c2cnn(-c3ccc(C(=O)N4CCN(C5CC5)CC4)cn3)c2O)ccc(C#N)c1F [Example 307, 4-(1-(5-(4-cyclopropylpiperazine-1-carbonyl)pyridin-2-yl)-5-hydroxy-1H-pyrazol-4-yl)-2-fluoro-3-methylbenzonitrile]
PHD Inhibition (pIC50) [1]: 8.39
EC50 [2]: 2340 nM

SMILES: Cc1cc(C#N)c(F)cc1-c1cnn(-c2ccc(C(=O)N3CCN(C4CC4)CC3)cn2)c1O [Example 308, 4-(1-(5-(4-cyclopropylpiperazine-1-carbonyl)pyridin-2-yl)-5-hydroxy-1H-pyrazol-4-yl)-2-fluoro-5-methylbenzonitrile]
PHD Inhibition (pIC50) [1]: 8.28
EC50 [2]: 6610 nM

SMILES: CCN1CCN(C(=O)c2ccc(-n3ncc(-c4ccc(C#N)c(C)c4C)c3O)nc2)CC1 [Example 309, 4-(1-(5-(4-ethylpiperazine-1-carbonyl)pyridin-2-yl)-5-hydroxy-1H-pyrazol-4-yl)-2,3-dimethylbenzonitrile]
PHD Inhibition (pIC50) [1]: 7.97
EC50 [2]: 2630 nM

SMILES: Cc1c(C#N)ccc(-c2cnn(-c3ccc(C(=O)N4CCN(C5CC5)CC4)cn3)c2O)c1C [Example 310, 4-(1-(5-(4-cyclopropylpiperazine-1-carbonyl)pyridin-2-yl)-5-hydroxy-1H-pyrazol-4-yl)-2,3-dimethylbenzonitrile]
PHD Inhibition (pIC50) [1]: 8.13
EC50 [2]: 3160 nM

SMILES: Cc1cc(C#N)ccc1-c1cnn(-c2ccc(C(=O)N3CCN(CC(F)F)CC3)cn2)c1O [Example 311, 4-(1-(5-(4-(2,2-difluoroethyl)piperazine-1-carbonyl)pyridin-2-yl)-5-hydroxy-1H-pyrazol-4-yl)-3-methylbenzonitrile]
PHD Inhibition (pIC50) [1]: 8.51
EC50 [2]: 1480 nM

SMILES: Cc1cc(C#N)ccc1-c1cnn(-c2ccc(C(=O)N3CCN(CC(F)(F)F)CC3)cn2)c1O [Example 312, 4-(5-hydroxy-1-(5-(4-(2,2,2-trifluoroethyl)piperazine-1-carbonyl)pyridin-2-yl)-1H-pyrazol-4-yl)-3-methylbenzonitrile]
PHD Inhibition (pIC50) [1]: 8.50
EC50 [2]: 1820 nM

SMILES: Cc1cc(C#N)ccc1-c1cnn(-c2ccc(C(=O)N(C)CCCN(C)C)cn2)c1O [Example 313, 6-(4-(4-cyano-2-methylphenyl)-5-hydroxy-1H-pyrazol-1-yl)-N-(3-(dimethylamino)propyl)-N-methylnicotinamide]
PHD Inhibition (pIC50) [1]: 7.59
EC50 [2]: 1120 nM

SMILES: Cc1cc(C#N)ccc1-c1cnn(-c2ccc(C(=O)N3CCCC(N4CCCCC4)C3)cn2)c1O (centres unmarked) [Example 314, 4-(1-(5-([1,3′-bipiperidine]-1′-carbonyl)pyridin-2-yl)-5-hydroxy-1H-pyrazol-4-yl)-3-methylbenzonitrile]
PHD Inhibition (pIC50) [1]: 7.90
EC50 [2]: 550 nM

SMILES: Cc1cc(C#N)ccc1-c1cnn(-c2ccc(C(=O)N3CCC[C@@H](N(C)C)C3)cn2)c1O [Example 315, (R)-4-(1-(5-(3-(dimethylamino)piperidine-1-carbonyl)pyridin-2-yl)-5-hydroxy-1H-pyrazol-4-yl)-3-methylbenzonitrile]
PHD Inhibition (pIC50) [1]: 8.09
EC50 [2]: 562 nM

Further lines, with some results ahead:

PHD Inhibition (pIC50) [1]: 8.31
SMILES: COC1CCN(C(=O)c2ccc(-n3ncc(-c4ccc(C#N)c(F)c4C)c3O)nc2)CC1 [Example 316, 2-fluoro-4-(5-hydroxy-1-(5-(4-methoxypiperidine-1-carbonyl)pyridin-2-yl)-1H-pyrazol-4-yl)-3-methylbenzonitrile]
EC50 [2]: 1290 nM

PHD Inhibition (pIC50) [1]: 8.31
SMILES: Cc1c(-c2cnn(-c3ccc(C(=O)N4CC[C@@H](N(C)C)C4)cn3)c2O)ccc(C#N)c1F [Example 317, (R)-4-(1-(5-(3-(dimethylamino)pyrrolidine-1-carbonyl)pyridin-2-yl)-5-hydroxy-1H-pyrazol-4-yl)-2-fluoro-3-methylbenzonitrile]
EC50 [2]: 676 nM

PHD Inhibition (pIC50) [1]: 8.35
SMILES: Cc1c(-c2cnn(-c3ccc(C(=O)N4CC[C@H](N(C)C)C4)cn3)c2O)ccc(C#N)c1F [Example 318, (S)-4-(1-(5-(3-(dimethylamino)pyrrolidine-1-carbonyl)pyridin-2-yl)-5-hydroxy-1H-pyrazol-4-yl)-2-fluoro-3-methylbenzonitrile]
EC50 [2]: 708 nM

PHD Inhibition (pIC50) [1]: 8.17
SMILES: Cc1c(-c2cnn(-c3ccc(C(=O)N4CCC[C@@H](N(C)C)C4)cn3)c2O)ccc(C#N)c1F [Example 319, (R)-4-(1-(5-(3-(dimethylamino)piperidine-1-carbonyl)pyridin-2-yl)-5-hydroxy-1H-pyrazol-4-yl)-2-fluoro-3-methylbenzonitrile]
EC50 [2]: 537 nM

PHD Inhibition (pIC50) [1]: 8.17
SMILES: Cc1c(-c2cnn(-c3ccc(C(=O)N4CCC[C@H](N(C)C)C4)cn3)c2O)ccc(C#N)c1F [Example 320, (S)-4-(1-(5-(3-(dimethylamino)piperidine-1-carbonyl)pyridin-2-yl)-5-hydroxy-1H-pyrazol-4-yl)-2-fluoro-3-methylbenzonitrile]
EC50 [2]: 741 nM

PHD Inhibition (pIC50) [1]: 8.40
SMILES: Cc1c(-c2cnn(-c3ccc(C(=O)N4CC(N(C)C)C4)cn3)c2O)ccc(C#N)c1F [Example 321, 4-(1-(5-(3-(dimethylamino)azetidine-1-carbonyl)pyridin-2-yl)-5-hydroxy-1H-pyrazol-4-yl)-2-fluoro-3-methylbenzonitrile]
EC50 [2]: 589 nM

PHD Inhibition (pIC50) [1]: 8.26
SMILES: Cc1c(-c2cnn(-c3ccc(C(=O)N4CCN(C)CC4)cn3)c2O)ccc(C#N)c1F [Example 322, 2-fluoro-4-(5-hydroxy-1-(5-(4-methylpiperazine-1-carbonyl)pyridin-2-yl)-1H-pyrazol-4-yl)-3-methylbenzonitrile]
EC50 [2]: 933 nM

PHD Inhibition (pIC50) [1]: 8.33
SMILES: Cc1c(-c2cnn(-c3ccc(C(=O)N4CCCN(C5CC5)CC4)cn3)c2O)ccc(C#N)c1F [Example 323, 4-(1-(5-(4-cyclopropyl-1,4-diazepane-1-carbonyl)pyridin-2-yl)-5-hydroxy-1H-pyrazol-4-yl)-2-fluoro-3-methylbenzonitrile]
EC50 [2]: 1820 nM

PHD Inhibition (pIC50) [1]: 8.54
SMILES: Cc1c(-c2cnn(-c3ccc(C(=O)N4CCN(C)C5(CC5)C4)cn3)c2O)ccc(C#N)c1F [Example 324, 2-fluoro-4-(5-hydroxy-1-(5-(4-methyl-4,7-diazaspiro[2.5]octane-7-carbonyl)pyridin-2-yl)-1H-pyrazol-4-yl)-3-methylbenzonitrile]
EC50 [2]: 832 nM

PHD Inhibition (pIC50) [1]: 8.44
SMILES: Cc1c(-c2cnn(-c3ccc(C(=O)N4CCCC4)cn3)c2O)ccc(C#N)c1F [Example 325, 2-fluoro-4-(5-hydroxy-1-(5-(pyrrolidine-1-carbonyl)pyridin-2-yl)-1H-pyrazol-4-yl)-3-methylbenzonitrile]
EC50 [2]: 977 nM

PHD Inhibition (pIC50) [1]: 8.33
SMILES: COCCCN(C)C(=O)c1ccc(-n2ncc(-c3ccc(C#N)c(F)c3C)c2O)nc1 [Example 326, 6-(4-(4-cyano-3-fluoro-2-methylphenyl)-5-hydroxy-1H-pyrazol-1-yl)-N-(3-methoxypropyl)-N-methylnicotinamide]
EC50 [2]: 490 nM

Reference: patent publication US10407409B2, “6-(5-hydroxy-1H-pyrazol-1-yl)nicotinamide inhibitors of PHD” (Takeda Pharmaceutical Company Limited, priority 2013, dated 2019)
